From patent publication US20110053910A1, “2 -HETEROCYCLYLOXYBENZOYL AMINO HETEROCYCLYL COMPOUNDS AS MODULATORS OF GLUCOKINASE FOR THE TREATMENT OF TYPE 2 DIABETES” (priority 2005, published 2011)

What was measured:
Zucker obese fa/fa rats = assay: Oral Glucose Tolerance Test (OGTT); format: in vivo, rat; conditions: 10 mg/kg, given orally 120 minutes before glucose 2 g/kg; Zucker obese fa/fa rats on high fat diet; vehicle-control AUC = zero percent
Description: Oral glucose tolerance tests were done on conscious Zucker obese fa/fa rats (age 12-13 weeks or older) fed a high fat diet (45% kcal fat) for at least two weeks prior to experimentation. The animals were fasted for 2 hours before use for experiments. A test compound or a vehicle was given orally 120 minutes before oral administration of a glucose solution at a dose of 2 g/kg body weight. Blood glucose levels were measured using a Accucheck glucometer from tail bled samples taken at different time points before and after administration of glucose (time course of […]). A time curve of the blood glucose levels was generated and the area-under-the-curve (AUC) for 120 minutes was calculated (the time of glucose administration being time zero). Percent reduction in glucose excursion was determined using the AUC in the vehicle-control group as zero percent reduction.

[1] = target: T1, recombinant human pancreatic GLK (Homo sapiens, UniProt P35557); assay: biochemical
T1 sequence (P35557 1-465): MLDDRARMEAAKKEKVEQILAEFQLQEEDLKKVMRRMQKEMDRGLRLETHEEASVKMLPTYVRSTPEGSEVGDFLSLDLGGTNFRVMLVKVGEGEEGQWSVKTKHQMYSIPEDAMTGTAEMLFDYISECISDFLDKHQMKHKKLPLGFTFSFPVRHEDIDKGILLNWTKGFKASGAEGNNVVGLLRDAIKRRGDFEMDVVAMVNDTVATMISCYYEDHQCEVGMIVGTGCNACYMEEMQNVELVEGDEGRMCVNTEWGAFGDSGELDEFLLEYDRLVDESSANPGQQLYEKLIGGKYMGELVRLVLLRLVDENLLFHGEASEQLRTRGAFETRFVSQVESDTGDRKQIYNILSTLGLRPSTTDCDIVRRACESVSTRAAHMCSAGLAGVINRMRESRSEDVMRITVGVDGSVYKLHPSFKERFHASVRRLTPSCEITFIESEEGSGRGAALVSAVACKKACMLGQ

## C[C@@H](CO)Oc1cc(Oc2nc3ccccc3s2)cc(C(=O)Nc2ccn(C)n2)c1 [Example 1, 3-(1,3-Benzothiazol-2-yloxy)-5-{[(1S)-2-hydroxy-1-methylethyl]oxy}-N-(1-methyl-1H-pyrazol-3-yl)benzamide]
Zucker obese fa/fa rats
  activity in OGTT (percent reduction in glucose excursion, AUC): 50%
[1]
  EC50: 0.088 µM
